Results: publication PMC7260336, “Identification of a species-specific aminotransferase in Pediococcus acidilactici capable of forming α-aminobutyrate” (AMB Express, 2020)

Experiments:
[1] = molecular target: T1, Aat (recombinant His-tagged aminotransferase) (Pediococcus acidilactici, UniProt E0NE36); assay: HPLC of amino acids formed; assay type: biochemical; details: amino acceptor; leucine, AABA or alanine as amino donor, 50 uM pyridoxal 5-phosphate, pH 5.5, 37 °C, 1 h
T1 construct: gene aspC; full length, C-terminal His tag (pEXP5-CT/TOPO), E. coli BL21(DE3), Ni-TED purified; gene about 1200 bp; cloning primers translate to N-terminus MSDKVNA and native C-terminus LKAKRA; locus tag contradictory: primers designed for GBO44_RS03485 in Methods, GBO44_RS04865 in Results
T1 sequence (E0NE36 1-394): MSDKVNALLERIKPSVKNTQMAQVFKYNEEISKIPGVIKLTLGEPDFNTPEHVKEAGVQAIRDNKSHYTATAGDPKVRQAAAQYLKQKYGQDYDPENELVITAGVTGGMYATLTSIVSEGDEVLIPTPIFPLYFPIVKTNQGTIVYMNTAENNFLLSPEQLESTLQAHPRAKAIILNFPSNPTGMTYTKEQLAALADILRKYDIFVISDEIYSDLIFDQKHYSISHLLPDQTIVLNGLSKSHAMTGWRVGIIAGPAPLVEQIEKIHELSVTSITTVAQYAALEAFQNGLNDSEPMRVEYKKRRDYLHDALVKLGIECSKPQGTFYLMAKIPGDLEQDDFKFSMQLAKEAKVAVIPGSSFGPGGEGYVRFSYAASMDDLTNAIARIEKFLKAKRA

[2] = molecular target: T1, Aat (recombinant His-tagged aminotransferase); assay: coupled assay, glutamate formed measured with glutamate dehydrogenase/diaphorase; assay type: biochemical; details: amino donor; 5 mM amino acid, 10 mM alpha-ketoglutarate, 50 uM pyridoxal 5-phosphate, pH 5.5, 37 °C

With `CCC(=O)C(=O)O` [AKB, α-ketobutyrate] the “HPLC of amino acids formed” value [1] was “AKB, pyruvate, KMTB, KIC, and PPA significantly preferred amino group acceptors to AKG”.
`CC(C)C[C@H](N)C(=O)O` [Leu, L-leucine] was tested, and the “coupled assay, glutamate formed measured with glutamate dehydrogenase/diaphorase” value [2] was “the enzyme transferred the amino group from leucine, methionine, AABA, alanine, cysteine, and phenylalanine”.
